Assay results taken from PubChem BioAssay (NCI).
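Step 1: Grow cells in 96-well plates. Step 2: Expose to compound for 48 hours at 5 concentrations. Step 3: Interpolate endpoints linearly; if unreached, use highest concentration. Abbreviation: GI50, concentration required for 50% inhibition of growth. TGI marks complete inhibition of growth.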

What was measured:
Experiment in all cases: DTP human tumour cell line panel, 48 h
HS 578T breast = tested on: HS 578T breast
RPMI-8226 leukemia = tested on: RPMI-8226 leukemia
UACC-62 melanoma = tested on: UACC-62 melanoma
PC-3 prostate = tested on: PC-3 prostate
NCI-H23 lung = tested on: NCI-H23 lung
NCI/ADR-RES ovarian = tested on: NCI/ADR-RES ovarian
M14 melanoma = tested on: M14 melanoma
SK-OV-3 ovarian = tested on: SK-OV-3 ovarian
HCC-2998 colon = tested on: HCC-2998 colon
MDA-MB-435 = tested on: MDA-MB-435

| Structure (SMILES) | GI50 (HS 578T breast) [µM] | TGI (HS 578T breast) [µM] | GI50 (RPMI-8226 leukemia) [µM] | TGI (RPMI-8226 leukemia) [µM] | GI50 (UACC-62 melanoma) [µM] | TGI (UACC-62 melanoma) [µM] | GI50 (PC-3 prostate) [µM] | TGI (PC-3 prostate) [µM] | GI50 (NCI-H23 lung) [µM] | TGI (NCI-H23 lung) [µM] | GI50 (NCI/ADR-RES ovarian) [µM] | TGI (NCI/ADR-RES ovarian) [µM] | GI50 (M14 melanoma) [µM] | TGI (M14 melanoma) [µM] | GI50 (SK-OV-3 ovarian) [µM] | TGI (SK-OV-3 ovarian) [µM] | GI50 (HCC-2998 colon) [µM] | TGI (HCC-2998 colon) [µM] | TGI (MDA-MB-435) [µM] | GI50 (MDA-MB-435) [µM] |
| --- | --- | --- | --- | --- | --- | --- | --- | --- | --- | --- | --- | --- | --- | --- | --- | --- | --- | --- | --- | --- |
| C[C@@H](Oc1cc(-n2cnc3ccc(OC[C@@H](O)CO)cc32)sc1C(N)=O)c1ccccc1Cl | 0.171 | 5.31 | 1.53 | > 25 | 0.107 | > 25 | 0.126 | > 25 | 0.14 | > 25 | 1.64 | > 25 | 0.0993 | > 25 | 0.123 | > 25 | 0.0848 | > 25 | – | – |
| O=[N+]([O-])c1cc2c([N+](=O)[O-])cccc2o1 | – | 43.8 | – | 11.4 | – | 27.7 | – | 36.1 | – | 37.6 | – | 32.6 | – | 24.9 | – | 31.3 | – | 35.7 | 53.8 | – |
| CCOC(=O)CNc1nnnn1C1OC(CO)C(O)C1O (stereo not drawn) | – | – | – | > 100 | – | > 100 | – | – | – | – | – | – | – | > 100 | – | > 100 | – | > 100 | – | – |
| C=C(CCCO)[C@@H]1CC[C@@](C)(O)[C@H]1C | – | – | – | > 100 | – | > 100 | – | – | – | > 100 | – | – | – | – | – | > 100 | – | > 100 | – | – |
| COc1cc(/C=C2\C[C@H]3[C@@H]4CC=C5C[C@@H](OC(C)=O)CC[C@]5(C)[C@H]4CC[C@]3(C)[C@H]2OC(C)=O)ccc1OCCN1CCCC1 | 9.32 | 18.8 | 1.07 | 13.4 | 9.48 | 17.5 | 8 | 20.4 | 10.1 | 19 | 10.2 | 20.6 | 8.56 | 30.4 | – | – | 8.01 | 15.4 | 27.2 | 13.3 |
| O=C(O[C@H]1CCN2C[C@H]3C[C@H](CN4C(=O)CCC[C@H]34)[C@@H]2C1)c1ccc(O)cc1 | – | > 100 | – | > 100 | – | > 100 | – | > 100 | – | > 100 | – | – | – | > 100 | – | > 100 | – | > 100 | > 100 | – |
| O=c1c(Cl)cc2nc3ccccc3sc-2c1Cl | – | > 100 | – | 25.9 | – | 24.4 | – | – | – | 28 | – | 56.9 | – | 37.2 | – | 39 | – | 34.7 | 7.8 | – |
| CCN(CC)CCNc1ccc2nc(C)n3c4ccc(O)cc4c(=O)c1c23 | – | – | – | 6.18 | – | – | – | – | – | – | – | – | – | 16.2 | – | 12.6 | – | 1.99 | – | – |
| Cc1ccc2nc(NC(=O)/C(=N\NC(=S)NN)C3C(=O)NC(=S)NC3=O)sc2c1 | – | – | – | > 100 | – | > 100 | – | – | – | > 100 | – | – | – | > 100 | – | > 100 | – | > 100 | – | – |
| Cc1ccc(S(=O)(=O)N2CCc3ccc(O)c4c3C2Cc2ccc3c(c2-4)OCO3)cc1 (stereo not drawn) | 1.06 | > 50.6 | 0.959 | 5.08 | 0.577 | 9.41 | 0.808 | 19.5 | 0.592 | 5.25 | 0.348 | 2.08 | 0.511 | 3.86 | 0.731 | 8.09 | 1.56 | 5.24 | 0.539 | 0.216 |
| CC1(C)N=C(N)N=C(N)N1c1cccc(Br)c1 | > 30.4 | > 100 | 6.81 | > 100 | 1.93 | > 100 | 0.212 | > 100 | 0.564 | > 100 | > 63.5 | > 100 | 0.558 | > 100 | 1.69 | > 100 | 0.777 | > 45.5 | > 100 | 0.0612 |
| Nc1ccc(Sc2c3ccccc3nc3ccccc23)cc1 | – | > 68.4 | – | 17.4 | – | 30.5 | – | 25.7 | – | 36.7 | – | 36 | – | 30.1 | – | 59.8 | – | 59.5 | 35.1 | – |
| COC[C@H](C)N=CN1CCc2ccccc2C1(Cc1ccccc1)Cc1ccccc1 | – | – | – | 38.9 | – | > 100 | – | – | – | 39.8 | – | – | – | 22.7 | – | 30.6 | – | – | – | – |
| COc1cccc(Nc2nccc(-c3cnn4ncccc34)n2)c1 | 0.0381 | 0.117 | 0.0621 | 0.166 | 0.0486 | 0.139 | 0.0652 | 1.32 | 0.0532 | 0.201 | 0.0679 | – | 0.0777 | 0.34 | 0.151 | > 25 | 0.0671 | 0.238 | 0.25 | 0.0609 |
| Cn1cnc([N+](=O)[O-])c1Sc1nccc(=O)[nH]1 | – | – | – | > 100 | – | > 100 | – | – | – | > 100 | – | – | – | > 100 | – | > 100 | – | > 100 | – | – |
| Cc1ccc(NC(=O)OCC(COc2ccc(Cl)cc2Cl)OC(=O)Nc2ccc(C)cc2)cc1 (stereo not drawn) | – | – | – | > 100 | – | > 100 | – | – | – | > 100 | – | – | – | > 100 | – | > 100 | – | > 100 | – | – |
| CCN(CC)CCn1c2ccccc2c(=O)c2c(OC)ccc(OC)c21 | – | – | – | > 100 | – | – | – | – | – | > 100 | – | – | – | > 100 | – | – | – | – | – | – |
| C=CCN(N=O)C(=O)NCCCCC(NC(C)=O)C(=O)NCc1ccccc1 (stereo not drawn) | – | – | – | > 100 | – | > 100 | – | – | – | > 100 | – | – | – | > 100 | – | > 100 | – | – | – | – |
| CC1C2CC=CC(=O)[C@@]2(C)CCC12OCCO2 (stereo partly drawn) | – | – | – | – | – | > 100 | – | – | – | > 100 | – | – | – | > 100 | – | > 100 | – | > 100 | – | – |
| O=C(O)CCC(C(=O)O)N1C(=O)C2C3CCC(C3)C2C1=O (stereo not drawn) | – | > 100 | – | > 100 | – | > 100 | – | > 100 | – | > 100 | – | > 100 | – | > 100 | – | > 100 | – | – | > 100 | – |
| COc1ccc2nc(NC(=O)C(=O)NNC(=O)c3ccncc3)sc2c1 | – | – | – | – | – | > 100 | – | – | – | > 100 | – | – | – | > 100 | – | > 100 | – | > 100 | – | – |
| CCOCc1cc(=O)c2c(OC)cc3c(c2o1)CCC(C)(C)O3 | – | – | – | – | – | > 100 | – | – | – | > 100 | – | – | – | > 100 | – | > 100 | – | > 100 | – | – |
| CC(C)C1N2CCCCC2[C@@H]2c3[nH]c4ccccc4c3CCN12 (stereo partly drawn) | – | – | – | > 100 | – | > 100 | – | – | – | > 100 | – | – | – | > 100 | – | > 100 | – | > 100 | – | – |
